# Test results published in US20200323212A1, “PEST CONTROL COMPOSITION AND USE OF SAME” (SUMITOMO CHEMICAL COMPANY, LIMITED, priority 2017, published 2020).
# Test system: ticks
# Test: Vial contact test, tick mortality after 48 hours (Test Examples 11, 14, 15)
# Type: in vivo
# Protocol: The Colby's calculation equation is shown as Equation 1 below.
# E=X+Y−X×Y/100 (Equation 1)
# Zero point two (0.2) mL of the solution was dropped to a 20 mL volume of vial, and the inner wall of the vial was coated homogeneously with the chemicals, and air-dried. Thereafter, ten ticks were released in the vial, and the vials were sealed with a lid. After 48 hours, the number of died ticks were examined, and the mortality (%) was calculated by the following equation 2. The three repetitions of each application dose were conducted.
# Mortality (%)=(Number of dead pests/Number of supplied pests)×100 (Equation 2)
# Zero point two (0.2) mL of the solution was dropped to a 20 mL volume of a vial, and the inner wall of the vial was coated homogeneously with the chemicals, and air-dried. Thereafter, ten ticks were released in the vial, and the vials were sealed with a lid. After 48 hours, the number of died ticks were examined, and the mortality (%) was calculated by the following equation 5. The three repetitions of each application dose were conducted.
# Mortality (%)=(Number of dead pests/Number of supplied pests)×100 (Equation 5)
# Zero point two (0.2) mL of the solution was dropped to a 20 mL volume of a vial, and the inner wall of the vial was coated homogeneously with the chemicals, and air-dried. Thereafter, ten ticks were released in the vial, and the vials were sealed with a lid. After 48 hours, the number of died ticks were examined, and the mortality (%) was calculated by the following equation 6. The three repetitions of each application dose were conducted.
# Mortality (%)=(Number of dead pests/Number of supplied pests)×100 (Equation 6)
Compound,"Mortality (Measured value) (N,N-diethyl-m-toluamide alone 10 mg/m^2) [%]","Mortality (Measured value) (N,N-diethyl-m-toluamide alone 20 mg/m^2) [%]",Mortality (Measured value) (sec-butyl=2-(2-hydroxyethyl)piperidine-1-carboxylate alone 10 mg/m^2) [%]
"CCN(CC)C(=O)c1cccc(C)c1 [N,N-diethyl-m-toluamide]",40,50,
CCC(C)OC(=O)N1CCCCC1CCO (stereo not drawn) [sec-butyl=2-(2-hydroxyethyl)piperidine-1-carboxylate],,,70
